Source: patent EP4650353A1 (Shanghai Institute of Materia Medica, Chinese Academy of …, priority 2023, dated 2024)

biological target: T1, human GLP-1 receptor (Homo sapiens, UniProt P43220); assay: GLP-1 receptor-mediated agonist activity: cAMP level in hGLP-1R/HEK293 cell line (HTRF); assay type: cell-based; details: cAMP levels in hGLP-1R/HEK293 cell line; Table 1; read-out: determined EC50
T1 construct: HA (N); expressed in transfected cells
T1 sequence (P43220 24-463): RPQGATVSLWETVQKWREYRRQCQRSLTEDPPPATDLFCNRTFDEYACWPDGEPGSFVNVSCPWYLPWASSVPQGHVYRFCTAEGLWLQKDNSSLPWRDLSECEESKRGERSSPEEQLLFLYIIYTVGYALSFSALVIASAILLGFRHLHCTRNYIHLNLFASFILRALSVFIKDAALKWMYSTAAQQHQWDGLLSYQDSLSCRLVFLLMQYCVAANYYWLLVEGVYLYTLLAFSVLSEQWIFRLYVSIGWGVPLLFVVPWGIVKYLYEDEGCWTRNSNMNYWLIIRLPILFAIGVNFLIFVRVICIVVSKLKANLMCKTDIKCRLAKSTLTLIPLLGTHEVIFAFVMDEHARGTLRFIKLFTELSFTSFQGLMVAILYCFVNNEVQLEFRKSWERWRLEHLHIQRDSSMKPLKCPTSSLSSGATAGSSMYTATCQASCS
Procedure: The hGLP-1R/HEK293 cells were digested, centrifuged and resuspended in culture medium (DMEM+0.2% BSA, m/v), and the cell density was adjusted to 2×10^5 cells/mL. IBMX (3-isobutyl-1-methylxanthine, final concentration of 0.5 mM) was added to the cell suspension and added to a 384-well plate at 5 µL (1×10^3 cells)/well. The compound was dissolved in DMSO to prepare a stock solution with a concentration of 10 mM. The experiment started with a concentration of 100 µM which was diluted 10 times in a series of 7 dilution points, with the 8th point being DMSO. 2 µL of the test compound of different concentrations was added to 98 µL of culture medium, shaken and mixed, 5 µL was taken and added to a 384-well plate (final concentration of the test compound was 0-100 nM, final concentration of DMSO was 1%, v/v), which was then incubated in the incubator (37°C, 5% CO2) in the dark for 30 min, then 10 µL of cAMP detection reagent (LANCE Ultra cAMP Detecion Kit, PerkinElmer, #TRF0264) was added, mixed well, and reacted at room temperature in the dark for 1 h. After the reaction was completed, the HTRF signal was read using the Envision 2104 multi-function microplate reader. All samples were tested in triplicate wells, and the ratio of the acceptor-donor excitation signal in each single well was calculated using the formula Ratio = Signal 665nM/Signal 620nM. The HTRF signal ratio and the corresponding compound concentration were analyzed and processed using GraphPad Prism 8 software, and the EC50 value of the compound was obtained by fitting the S-type dose-response curve and calculating.

EC50 [pM]	Molecule
4	[2H]C([2H])([2H])Oc1cc(C(=O)O)cc2c1nc(CN1CCN(c3cccc(OCc4ccc(C#N)cc4F)n3)C=N1)n2C[C@@H]1CCO1 [Compound 12, (S)-2-((4-(6-((4-cyano-2-fluorobenzyl)oxy)pyridin-2-yl)-5,6-dihydro-1,2,4-triazin-1(4H)-yl)methyl)-4-(methoxy-d3)-1-(oxetan-2-ylmethyl)-1H-benzo[d]imidazole-6-carboxylic acid]
2.2	N#Cc1ccc(COc2cccc(N3C=NN(Cc4nc5c(OC6CC6)cc(C(=O)O)cc5n4C[C@@H]4CCO4)CC3)n2)c(F)c1 [Compound 13, (S)-2-((4-(6-((4-cyano-2-fluorobenzyl)oxy)pyridin-2-yl)-5,6-dihydro-1,2,4-triazin-1(4H)-yl)methyl)-4-cyclopropyloxy-1-(oxetan-2-ylmethyl)-1H-benzo[d]imidazole-6-carboxylic acid]
3.3	COc1cc(C(=O)O)cc2c1nc(CN1CCC(c3cccc(OCc4ccc(Cl)c5c4OCC5)n3)CC1)n2C[C@@H]1CCO1 [Compound 16, (S)-2-((4-(6-((4-chloro-2,3-dihydrobenzofuran-7-yl)methoxy)pyridin-2-yl)piperidin-1-yl)methyl)-4-methoxy-1-(oxetan-2-ylmethyl)-1H-benzo[d]imidazole-6-carboxylic acid]
9.3	[2H]C([2H])([2H])Oc1cc(C(=O)O)cc2c1nc(CN1CCN(c3cccc(OCc4ccc(Cl)cc4F)n3)C=N1)n2C[C@@H]1CCO1 [Compound 26, (S)-2-((4-(6-((4-chloro-2-fluorobenzyl)oxy)pyridin-2-yl)-5,6-dihydro-1,2,4-triazin-1(4H)-yl)methyl)-4-(methoxy-d3)-1-(oxetan-2-ylmethyl)-1H-benzo[d]imidazole-6-carboxylic acid]
8.7	COc1cc(C(=O)O)cc2c1nc(CN1CCC(c3cccc(OCc4ccc(C(F)(F)F)cc4F)n3)CC1)n2C[C@@H]1CCO1 [Compound 27, (S)-2-((4-(6-((2-fluoro-4-(trifluoromethyl)benzyl)oxy)pyridin-2-yl)piperidin-1-yl)methyl)-4-methoxy-1-(oxetan-2-ylmethyl)-1H-benzo[d]imidazole-6-carboxylic acid]
7.4	CCOc1cc(C(=O)O)cc2c1nc(CN1CCC(c3cccc(OCc4ccc(C(F)(F)F)cc4F)n3)CC1)n2C[C@@H]1CCO1 [Compound 28, (S)-4-ethoxy-2-((4-(6-((2-fluoro-4-(trifluoromethyl)benzyl)oxy)pyridin-2-yl)piperidin-1-yl)methyl)-1-(oxetan-2-ylmethyl)-1H-benzo[d]imidazole-6-carboxylic acid]
2.2	CCOc1cc(C(=O)O)cc2c1nc(CN1CCC(c3cccc(OCc4ccc(Cl)cc4F)n3)CC1)n2C[C@@H]1CCO1 [Compound 29, (S)-2-((4-(6-((4-chloro-2-fluorobenzyl)oxy)pyridin-2-yl)piperidin-1-yl)methyl)-4-ethoxy-1-(oxetan-2-ylmethyl)-1H-benzo[d]imidazole-6-carboxylic acid]
37	COc1cc(C(=O)O)cc2c1nc(CN1CCC(c3cccnc3OCc3ccc(Cl)cc3F)CC1)n2C[C@@H]1CCO1 [Compound 31, (S)-2-((4-(2-((4-chloro-2-fluorobenzyl)oxy)pyridin-3-yl)piperidin-1-yl)methyl)-4-methoxy-1-(oxetan-2-ylmethyl)-1H-benzo[d]imidazole-6-carboxylic acid]
14.2	CCOc1cc(C(=O)O)cc2c1nc(CN1CCC(c3cccnc3OCc3ccc(Cl)cc3F)CC1)n2C[C@@H]1CCO1 [Compound 32, (S)-2-((4-(2-((4-chloro-2-fluorobenzyl)oxy)pyridin-3-yl)piperidin-1-yl)methyl)-4-ethoxy-1-(oxetan-2-ylmethyl)-1H-benzo[d]imidazole-6-carboxylic acid]
46.7	CCOc1cc(C(=O)O)cc2c1nc(CN1CCC(c3cccnc3OCc3ccc(C#N)cc3F)CC1)n2C[C@@H]1CCO1 [Compound 33, (S)-2-((4-(2-((4-cyano-2-fluorobenzyl)oxy)pyridin-3-yl)piperidin-1-yl)methyl)-4-ethoxy-1-(oxetan-2-ylmethyl)-1H-benzo[d]imidazole-6-carboxylic acid]

Second part, the molecule before the results:

Molecule	EC50 [pM]
4-methoxy-2-((4-(2-(2-methoxy-4-(trifluoromethyl)phenyl)-2-methylbenzo[d][1,3]dioxol-4-yl)piperidin-1-yl)methyl)-1-((S)-oxetan-2-yl)methyl]-1H-benzo[d]imidazole-6-carboxylic acid [Compound 59]	3.1
COc1cc(C(=O)O)cc2c1nc(CN1CCC(c3cccc(OCc4ccc(C#N)cc4F)n3)CC1)n2C[C@@H]1CCO1 [Compound 1, (S)-2-((4-(6-((4-cyano-2-fluorobenzyl)oxy)pyridin-2-yl)piperidin-1-yl)methyl)-4-methoxy-1-(oxetan-2-ylmethyl)-1H-benzo[d]imidazole-6-carboxylic acid]	4.8
CCOc1cc(C(=O)O)cc2c1nc(CN1CCC(c3cccc(OCc4ccc(C#N)cc4F)n3)CC1)n2C[C@@H]1CCO1 [Compound 2, (S)-2-((4-(6-((4-cyano-2-fluorobenzyl)oxy)pyridin-2-yl)piperidin-1-yl)methyl)-4-ethoxy-1-(oxetan-2-ylmethyl)-1H-benzo[d]imidazole-6-carboxylic acid]	1.1
N#Cc1ccc(COc2cccc(C3CCN(Cc4nc5c(OCC6CC6)cc(C(=O)O)cc5n4C[C@@H]4CCO4)CC3)n2)c(F)c1 [Compound 5, (S)-2-((4-(6-((4-cyano-2-fluorobenzyl)oxy)pyridin-2-yl)piperidin-1-yl)methyl)-4-(cyclopropylmethoxy)-1-(oxetan-2-ylmethyl)-1H-benzo[d]imidazole-6-carboxylic acid]	12
COc1cc(C(=O)O)cc2c1nc(CN1CCN(c3cccc(OCc4ccc(C#N)cc4F)n3)C=N1)n2C[C@@H]1CCO1 [Compound 8, (S)-2-((4-(6-((4-cyano-2-fluorobenzyl)oxy)pyridin-2-yl)-5,6-dihydro-1,2,4-triazin-1(4H)-yl)methyl)-4-methoxy-1-(oxetan-2-ylmethyl)-1H-benzo[d]imidazole-6-carboxylic acid]	3.4
CCCOc1cc(C(=O)O)cc2c1nc(CN1CCN(c3cccc(OCc4ccc(C#N)cc4F)n3)C=N1)n2C[C@@H]1CCO1 [Compound 10, (S)-2-((4-(6-((4-cyano-2-fluorobenzyl)oxy)pyridin-2-yl)-5,6-dihydro-1,2,4-triazin-1(4H)-yl)methyl)-1-(oxetan-2-ylmethyl)-4-propoxy-1H-benzo[d]imidazole-6-carboxylic acid]	4.9
N#Cc1ccc(COc2cccc(N3C=NN(Cc4nc5c(OC(F)F)cc(C(=O)O)cc5n4C[C@@H]4CCO4)CC3)n2)c(F)c1 [Compound 11, (S)-2-((4-(6-((4-cyano-2-fluorobenzyl)oxy)pyridin-2-yl)-5,6-dihydro-1,2,4-triazin-1(4H)-yl)methyl)-4-(difluoromethoxy)-1-(oxetan-2-ylmethyl)-1H-benzo[d]imidazole-6-carboxylic acid]	13.3
COc1cc(C(=O)O)cc2c1nc(CN1CCC(c3cccc(OCc4ccc(C#N)c5c4OCC5)n3)CC1)n2C[C@@H]1CCO1 [Compound 15, (S)-2-((4-(6-((4-cyano-2,3-dihydrobenzofuran-7-yl)methoxy)pyridin-2-yl)piperidin-1-yl)methyl)-4-methoxy-1-(oxetan-2-ylmethyl)-1H-benzo[d]imidazole-6-carboxylic acid]	1.9
CCOc1cc(C(=O)O)cc2c1nc(CN1CCN(c3cccc(OCc4ccc(Cl)cc4F)n3)C=N1)n2C[C@@H]1CCO1 [Compound 21, (S)-2-((4-(6-((4-chloro-2-fluorobenzyl)oxy)pyridin-2-yl)-5,6-dihydro-1,2,4-triazin-1(4H)-yl)methyl)-4-ethoxy-1-(oxetan-2-ylmethyl)-1H-benzo[d]imidazole-6-carboxylic acid]	1
COc1cc(C(=O)O)cc2c1nc(CN1CCN(c3cccc(OCc4ccc(C(F)(F)F)cc4F)n3)C=N1)n2C[C@@H]1CCO1 [Compound 22, (S)-2-((4-(6-((2-fluoro-4-(trifluoromethyl)benzyl)oxy)pyridin-2-yl)-5,6-dihydro-1,2,4-triazin-1(4H)-yl)methyl)-4-methoxy-1-(oxetan-2-ylmethyl)-1H-benzo[d]imidazole-6-carboxylic acid]	8.5
CCOc1cc(C(=O)O)cc2c1nc(CN1CCN(c3cccc(OCc4ccc(C(F)(F)F)cc4F)n3)C=N1)n2C[C@@H]1CCO1 [Compound 24, (S)-4-ethoxy-2-((4-(6-((2-fluoro-4-(trifluoromethyl)benzyl)oxy)pyridin-2-yl)-5,6-dihydro-1,2,4-triazin-1(4H)-yl)methyl)-1-(oxetan-2-ylmethyl)-1H-benzo[d]imidazole-6-carboxylic acid]	5.3
O=C(O)c1cc(OC2CC2)c2nc(CN3CCN(c4cccc(OCc5ccc(Cl)cc5F)n4)C=N3)n(C[C@@H]3CCO3)c2c1 [Compound 25, (S)-2-((4-(6-((4-chloro-2-fluorobenzyl)oxy)pyridin-2-yl)-5,6-dihydro-1,2,4-triazin-1(4H)-yl)methyl)-4-cyclopropyloxy-1-(oxetan-2-ylmethyl)-1H-benzo[d]imidazole-6-carboxylic acid]	11.8
COc1cc(C(=O)O)cc2c1nc(CN1CCN(c3cccc(OCc4ccc(Cl)cc4F)n3)CC1)n2C[C@@H]1CCO1 [Compound 30, (S)-2-((4-(6-((4-chloro-2-fluorobenzyl)oxy)pyridin-2-yl)piperazin-1-yl)methyl)-4-methoxy-1-(oxetan-2-ylmethyl)-1H-benzo[d]imidazole-6-carboxylic acid]	9.6

same assay, conditions: cAMP levels of the hGLP-1R/HEK293 cell line; Table 2, comparison with reference compounds; read-out: EC50

EC50 [pM]	Molecule
12.7	N#Cc1ccc(COc2cccc(C3CCN(Cc4nc5ccc(C(=O)O)cc5n4C[C@@H]4CCO4)CC3)n2)c2occc12 [CN113480534 , Compound 3, reference compound]
336	CC1(c2ccc(Cl)cn2)Oc2cccc(N3C=NN(Cc4nc5ccc(C(=O)O)cc5n4C[C@@H]4CCO4)CC3)c2O1 (some centres unmarked) [CN2022114139828 , Compound 36, reference compound]
137	CC1(c2ccc(Cl)cc2F)Oc2cccc(N3C=NN(Cc4nc5ccc(C(=O)O)cc5n4C[C@@H]4CCO4)CC3)c2O1 (some centres unmarked) [CN2022114139828 , Compound 37, reference compound]
